Columns and labels:
[1] = target: hSGLT-2 (Homo sapiens (Human), UniProt P31639); assay: [14C]AMG uptake inhibition in CHO-K1/hSGLT-2 cells; type: cell-based; conditions: 4 μM [14C]AMG, 3-hr incubation at 37° C., read-out: SGLT2, IC50
Procedure: The inhibitory activity of the compounds of this invention against the SGLT-1 or SGLT-2 transporters can be determined by the following assay. […] CHO-K1 cells transfected with pcDNA3.1 (Invitrogen Corp., Carlsbad, Calif.) containing either the full-length hSGLT-1 or hSGLT-2 using Lipofectamine 2000 (Invitrogen Corp., Carlsbad, Calif.) were selected for stable incorporation of the construct by resistance to the selective pressure of Geneticin (450 μg/ml; Invitrogen Corp., Carlsbad, Calif.). Monoclonal cell lines isolated by minimal dilution were screened for uptake activity of radiolabled methyl α-D-glucopyranoside ([^14C]AMG), a non-metabolizable glucose analogue, and a single clone for each transporter was selected for maximal transporter activity to be used for evaluating the inhibitory activity of the compounds of this invention. In brief, 35,000 cells (CHO-K1/hSGLT-1 or CHO-K1/hSGLT-2) were plated per well of a black tissue culture treated 96-well plate in Ham's F12 media supplemented with 10% heat inactivated FBS and allowed to attached overnight at 37° C. and 5% CO2. Compounds were serially diluted 3-fold in DMSO generating a nine (9) data point dose response curve for each compound. Two replicates were performed per determination. […] Following a 3-hr incubation at 37° C. and 5% CO2, the uptake reaction was stopped by washing the cells three (3) times with ice-cold D-PBS and then lysing the cells with 50 μl of Microscint-20. […] Data were fit to an empirical four-parameter model to determine the inhibitor concentration at half-maximal response (IC50). The assay window was established by control wells incubated with [^14C]AMG in the presence or absence of sodium. A dose response curve for phlorizin was generated on every plate as a positive control.

[2] = target: hSGLT-1 (Homo sapiens (Human), UniProt P13866); assay: [14C]AMG uptake inhibition in CHO-K1/hSGLT-1 cells; type: cell-based; conditions: 4 μM [14C]AMG, 3-hr incubation at 37° C., read-out: SGLT-1, IC50
hSGLT-1, sequence (P13866 whole entry): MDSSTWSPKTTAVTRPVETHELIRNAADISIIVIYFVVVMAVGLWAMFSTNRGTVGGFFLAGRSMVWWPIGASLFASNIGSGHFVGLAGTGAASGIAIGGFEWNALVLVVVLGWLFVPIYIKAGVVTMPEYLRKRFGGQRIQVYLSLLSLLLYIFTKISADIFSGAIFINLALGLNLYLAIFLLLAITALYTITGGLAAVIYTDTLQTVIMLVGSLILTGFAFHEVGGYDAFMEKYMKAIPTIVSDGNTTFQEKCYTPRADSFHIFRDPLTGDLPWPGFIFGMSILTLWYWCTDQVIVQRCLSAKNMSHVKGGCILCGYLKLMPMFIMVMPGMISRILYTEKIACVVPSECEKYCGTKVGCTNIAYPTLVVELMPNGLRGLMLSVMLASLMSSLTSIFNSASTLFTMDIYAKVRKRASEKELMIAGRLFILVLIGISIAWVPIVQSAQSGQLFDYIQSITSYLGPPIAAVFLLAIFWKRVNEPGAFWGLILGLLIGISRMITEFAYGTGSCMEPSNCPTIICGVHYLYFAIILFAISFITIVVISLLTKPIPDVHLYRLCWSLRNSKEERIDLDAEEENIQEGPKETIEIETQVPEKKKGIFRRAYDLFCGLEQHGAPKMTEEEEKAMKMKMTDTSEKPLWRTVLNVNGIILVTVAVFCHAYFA
Excerpt: The inhibitory activity of the compounds of this invention against the SGLT-1 or SGLT-2 transporters can be determined by the following assay. The cDNAs for the human genes of SGLT-1 (SLC5A1—solute carrier family 5 sodium/glucose cotransporter member 1; Accession #NM_000343.1) or SGLT-2 (SLC5A2—member 2; Accession #NM_003041.2) were synthesized (OriGene Technologies, Inc.) and sub-cloned into the mammalian expression vector, pcDNA3.1 (Invitrogen Corp., Carlsbad, Calif.) using standard molecular biology techniques. CHO-K1 cells transfected with pcDNA3.1 (Invitrogen Corp., Carlsbad, Calif.) containing either the full-length hSGLT-1 or hSGLT-2 using Lipofectamine 2000 (Invitrogen Corp., Carlsbad, Calif.) were selected for stable incorporation of the construct by resistance to the selective pressure of Geneticin (450 μg/ml; Invitrogen Corp., Carlsbad, Calif.). Monoclonal cell lines isolated by minimal dilution were screened for uptake activity of radiolabled methyl α-D-glucopyranoside ([^14C]AMG), a non-metabolizable glucose analogue, and a single clone for each transporter was selected for maximal transporter activity to be used for evaluating the inhibitory activity of the compounds of this invention. In brief, 35,000 cells (CHO-K1/hSGLT-1 or CHO-K1/hSGLT-2) were plated per well of a black tissue culture treated 96-well plate in Ham's F12 media supplemented with 10% heat inactivated FBS and allowed to attached overnight at 37° C. and 5% CO2. Compounds were serially diluted 3-fold in DMSO generating a nine (9) data point dose response curve for each compound. Two replicates were performed per determination. The compounds were then diluted into Uptake Buffer (10 mM Hepes, 5 mM Tris, 137 mM NaCl, 5.4 mM KCl, 2.8 mM CaCl2, and 1.2 mM MgSO4, pH 7.4) with a final DMSO concentration of 0.9% (v/v). After the overnight incubation and prior to compound treatment, the cells were washed twice with Sodium Free Buffer in which the sodium chloride was replaced with 137 mM Choline Chloride, and then incubated with 4 μM [^14C]AMG in Uptake Buffer in the presence or absence of diluted compound. Following a 3-hr incubation at 37° C. and 5% CO2, the uptake reaction was stopped by washing the cells three (3) times with ice-cold D-PBS and then lysing the cells with 50 μl of Microscint-20. After 15-min, the amount of radioactivity that was incorporated into the cells was quantified using a Microbeta reader. Data were fit to an empirical four-parameter model to determine the inhibitor concentration at half-maximal response (IC50). The assay window was established by control wells incubated with [^14C]AMG in the presence or absence of sodium. A dose response curve for phlorizin was generated on every plate as a positive control.

hSGLT-2, sequence (P31639 whole entry): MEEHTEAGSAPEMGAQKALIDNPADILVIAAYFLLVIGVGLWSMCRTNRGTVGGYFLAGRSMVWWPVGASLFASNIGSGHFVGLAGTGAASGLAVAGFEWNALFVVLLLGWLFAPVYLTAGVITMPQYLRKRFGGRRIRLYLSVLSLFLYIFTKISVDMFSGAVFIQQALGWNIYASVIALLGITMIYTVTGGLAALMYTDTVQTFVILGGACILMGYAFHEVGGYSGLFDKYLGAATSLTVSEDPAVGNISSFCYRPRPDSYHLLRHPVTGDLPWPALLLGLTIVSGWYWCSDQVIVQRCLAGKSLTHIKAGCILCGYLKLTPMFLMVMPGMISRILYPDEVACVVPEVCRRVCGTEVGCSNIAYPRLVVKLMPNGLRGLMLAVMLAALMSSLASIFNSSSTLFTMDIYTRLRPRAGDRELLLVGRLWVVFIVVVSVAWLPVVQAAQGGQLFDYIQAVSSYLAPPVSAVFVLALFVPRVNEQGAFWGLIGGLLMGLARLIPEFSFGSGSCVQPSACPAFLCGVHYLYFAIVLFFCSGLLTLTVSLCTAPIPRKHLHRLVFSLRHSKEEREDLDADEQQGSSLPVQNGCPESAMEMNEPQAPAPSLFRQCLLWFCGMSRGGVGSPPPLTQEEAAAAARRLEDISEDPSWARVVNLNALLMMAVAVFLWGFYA

Row | IC50 [1] [nM] | IC50 [2] [nM] | Compound
1 | 82.8 | 24200 | O=c1n(Cc2cc([C@@H]3O[C@H](CO)[C@@H](O)[C@H](O)[C@H]3O)ccc2Cl)nc2ccccn12 [I-1, 2-(2-chloro-5-((2S,3R,4R,5S,6R)-3,4,5-trihydroxy-6-(hydroxymethyl)tetrahydro-2H-pyran-2-yl)benzyl)-[1,2,4]triazolo[4,3-a]pyridin-3(2H)-one]
2 | 129 | 67400 | Cc1ccc2nn(Cc3cc([C@@H]4O[C@H](CO)[C@@H](O)[C@H](O)[C@H]4O)ccc3Cl)c(=O)n2c1 [I-2, 2-(2-chloro-5-((2S,3R,4R,5S,6R)-3,4,5-trihydroxy-6-(hydroxymethyl)tetrahydro-2H-pyran-2-yl)benzyl)-6-methyl-[1,2,4]triazolo[4,3-a]pyridin-3(2H)-one]
3 | 273 | 49500 | O=c1n(Cc2cc([C@@H]3O[C@H](CO)[C@@H](O)[C@H](O)[C@H]3O)ccc2Cl)nc2cc(C(F)(F)F)ccn12 [I-3, 2-(2-chloro-5-((2S,3R,4R,5S,6R)-3,4,5-trihydroxy-6-(hydroxymethyl)tetrahydro-2H-pyran-2-yl)benzyl)-7-(trifluoromethyl)-[1,2,4]triazolo[4,3-a]pyridin-3(2H)-one]
4 | 991 | > 90000 | O=c1n(Cc2cc([C@@H]3O[C@H](CO)[C@@H](O)[C@H](O)[C@H]3O)ccc2Cl)nc2ccc(C(F)(F)F)cn12 [I-5, 2-(2-chloro-5-((2S,3R,4R,5S,6R)-3,4,5-trihydroxy-6-(hydroxymethyl)tetrahydro-2H-pyran-2-yl)benzyl)-6-(trifluoromethyl)-[1,2,4]triazolo[4,3-a]pyridin-3(2H)-one]
5 | 145 | > 90000 | O=c1n(Cc2cc([C@@H]3O[C@H](CO)[C@@H](O)[C@H](O)[C@H]3O)ccc2Cl)nc2ccc(CO)cn12 [I-6, 2-(2-chloro-5-((2S,3R,4R,5S,6R)-3,4,5-trihydroxy-6-(hydroxymethyl)tetrahydro-2H-pyran-2-yl)benzyl)-6-(hydroxymethyl)-[1,2,4]triazolo[4,3-a]pyridin-3(2H)-one]
6 | 316 | > 73200 | OC[C@H]1O[C@@H](c2ccc(Cl)c(Cn3nc4ccccn4c3=S)c2)[C@H](O)[C@@H](O)[C@@H]1O [I-7, 2-(2-chloro-5-((2S,3R,4R,5S,6R)-3,4,5-trihydroxy-6-(hydroxymethyl)tetrahydro-2H-pyran-2-yl)benzyl)-[1,2,4]triazolo[4,3-a]pyridine-3(2H)-thione]
7 | 81.1 | 61200 | O=c1n(Cc2cc([C@@H]3O[C@H](CO)[C@@H](O)[C@H](O)[C@H]3O)ccc2Cl)nc2ccc(Cl)cn12 [I-8, 6-chloro-2-(2-chloro-5-((2S,3R,4R,5S,6R)-3,4,5-trihydroxy-6-(hydroxymethyl)tetrahydro-2H-pyran-2-yl)benzyl)-[1,2,4]triazolo[4,3-a]pyridin-3(2H)-one]
8 | 109 |  | Cc1ccn2c(=O)n(Cc3cc([C@@H]4O[C@H](CO)[C@@H](O)[C@H](O)[C@H]4O)ccc3Cl)nc2c1 [I-9, 2-(2-chloro-5-((2S,3R,4R,5S,6R)-3,4,5-trihydroxy-6-(hydroxymethyl)tetrahydro-2H-pyran-2-yl)benzyl)-7-methyl-[1,2,4]triazolo[4,3-a]pyridin-3(2H)-one]
9 | 94.8 | 45600 | O=c1n(Cc2cc([C@@H]3O[C@H](CO)[C@@H](O)[C@H](O)[C@H]3O)ccc2Cl)nc2ccc(Br)cn12 [I-10, 6-bromo-2-(2-chloro-5-((2S,3R,4R,5S,6R)-3,4,5-trihydroxy-6-(hydroxymethyl)tetrahydro-2H-pyran-2-yl)benzyl)-[1,2,4]triazolo[4,3-a]pyridin-3(2H)-one]
10 | 222 |  | O=c1n(Cc2cc([C@@H]3O[C@H](CO)[C@@H](O)[C@H](O)[C@H]3O)ccc2Cl)nc2ccc(F)cn12 [I-11, 2-(2-chloro-5-((2S,3R,4R,5S,6R)-3,4,5-trihydroxy-6-(hydroxymethyl)tetrahydro-2H-pyran-2-yl)benzyl)-6-fluoro-[1,2,4]triazolo[4,3-a]pyridin-3(2H)-one]
11 | 36.6 | > 90000 | Cc1cc2nn(Cc3cc([C@@H]4O[C@H](CO)[C@@H](O)[C@H](O)[C@H]4O)ccc3Cl)c(=O)n2cc1Cl [I-12, 6-chloro-2-(2-chloro-5-((2S,3R,4R,5S,6R)-3,4,5-trihydroxy-6-(hydroxymethyl)tetrahydro-2H-pyran-2-yl)benzyl)-7-methyl-[1,2,4]triazolo[4,3-a]pyridin-3(2H)-one]
12 | 170 | > 90000 | O=c1n(Cc2cc([C@@H]3O[C@H](CO)[C@@H](O)[C@H](O)[C@H]3O)ccc2Cl)nc2cc(CO)ccn12 [I-14, 2-(2-chloro-5-((2S,3R,4R,5S,6R)-3,4,5-trihydroxy-6-(hydroxymethyl)tetrahydro-2H-pyran-2-yl)benzyl)-7-(hydroxymethyl)-[1,2,4]triazolo[4,3-a]pyridin-3(2H)-one]
13 | 463 | > 90000 | O=c1n(Cc2cc([C@@H]3O[C@H](CO)[C@@H](O)[C@H](O)[C@H]3O)ccc2Cl)nc2ccc(CCO)cn12 [I-15, 2-(2-chloro-5-((2S,3R,4R,5S,6R)-3,4,5-trihydroxy-6-(hydroxymethyl)tetrahydro-2H-pyran-2-yl)benzyl)-6-(2-hydroxyethyl)-[1,2,4]triazolo[4,3-a]pyridin-3(2H)-one]
14 | 226 | > 90000 | OC[C@H]1O[C@@H](c2ccc(Cl)c(Cc3ccc4ncnn4c3)c2)[C@H](O)[C@@H](O)[C@@H]1O [II-1, (2S,3R,4R,5S,6R)-2-(3-([1,2,4]triazolo[1,5-a]pyridin-6-ylmethyl)-4-chlorophenyl)-6-(hydroxymethyl)tetrahydro-2H-pyran-3,4,5-triol]
15 | 542 | 71500 | O=c1c2ccoc2ccn1Cc1cc([C@@H]2O[C@H](CO)[C@@H](O)[C@H](O)[C@H]2O)ccc1Cl [II-2, 5-(2-chloro-5-((2S,3R,4R,5S,6R)-3,4,5-trihydroxy-6-(hydroxymethyl)tetrahydro-2H-pyran-2-yl)benzyl)furo[3,2-c]pyridin-4(5H)-one]
16 | 329 | 6250 | O=C1CN(c2ccc(Cc3cc([C@@H]4O[C@H](CO)[C@@H](O)[C@H](O)[C@H]4O)ccc3Cl)cc2)C(=O)N1C(c1ccccc1)(c1ccccc1)c1ccccc1 [III-1, 1-(4-(2-chloro-5-((2S,3R,4R,5S,6R)-3,4,5-trihydroxy-6-(hydroxymethyl)tetrahydro-2H-pyran-2-yl)benzyl)phenyl)-3-tritylimidazolidine-2,4-dione]
17 | 11.4 | 17500 | CCN1C(=O)CN(c2ccc(Cc3cc([C@@H]4O[C@H](CO)[C@@H](O)[C@H](O)[C@H]4O)ccc3Cl)cc2)C1=O [III-2, 1-(4-(2-chloro-5-((2S,3R,4R,5S,6R)-3,4,5-trihydroxy-6-(hydroxymethyl)tetrahydro-2H-pyran-2-yl)benzyl)phenyl)-3-ethylimidazolidine-2,4-dione]
18 | 148 | 83 | CN1CC(=O)N(c2ccc(Cc3cc([C@@H]4O[C@H](CO)[C@@H](O)[C@H](O)[C@H]4O)ccc3Cl)cc2)C1=O [III-3, 3-(4-(2-chloro-5-((2S,3R,4R,5S,6R)-3,4,5-trihydroxy-6-(hydroxymethyl)tetrahydro-2H-pyran-2-yl)benzyl)phenyl)-1-methylimidazolidine-2,4-dione]

Reference: patent publication US8575114B2, “SGLT-2 inhibitors, methods of making them, and uses thereof” (Albany Molecular Research, Inc., priority 2010, dated 2013)
